{"source": "patent US20150299660A1", "about": "“DIFFERENTIATION OF HUMAN FIBROBLAST CELLS” (International Stem Cell Corporation, priority 2012, published 2015)", "key": {"[1]": {"system": "MSC which have under gone chondrogenesis", "test": "Cartilage / matrix formation by MSC which have undergone chondrogenesis, complex sugars in the media", "assay_type": "cell-based", "conditions": "sugar in the media", "from_the_text": "(§1) As used herein, the terms “complex sugar” and “complex sugars” includes monomeric and polymeric sugar chains. The use of sugars as a supplement enhancing extracellular matrix deposition is a unique aspect to the present invention. They can also be specific for cell type. As an example, previous studies have shown mesenchymal stem for chondrogenesis using a similar formulation as disclosed in the present invention, but without glucosamine sulfate. […] In a surprising aspect the present invention discloses that the use of certain complex sugars in the media massively increases the accumulation of calcium derived from osteocytes while the use of other sugars actively suppresses the accumulation of calcium. […] Fibroblasts allowed to acquire a MSC like state require galactose, glucuronic acid and glucosamine sulfate for cartilage formation, while hyaluronic acid will repress it. Examples of sugars are hyaluronic acid, galactose, glucosamine sulfate, glucuronic acid, mannose, sialic acid, chondroitin sulfate and galactosamine."}, "fibroblasts": {"system": "fibroblasts", "conditions": "has been shown; cited from earlier work"}, "[2]": {"system": "Fibroblasts allowed to acquire a MSC like state", "test": "Cartilage formation by fibroblasts allowed to acquire a MSC like state, complex sugars in the media", "assay_type": "cell-based", "conditions": "sugar in the media", "from_the_text": "as §1\nFibroblast cells were grown in FibroLife S2 on standard tissue culture-treated plastic. Fibroblasts cells were plated at 20,000 cells/cm^2 and allowed the cells to grow to 80-90% confluence actively proliferating.\nThe cells were centrifuged and the cells resuspended at 2.5×10^7 cells/ml in 1.5% alignate solution. The cells in the alignate solution are loaded into a syringe and applied to a stirred 100 mM calcium chloride solution to form microbeads. After 10 minutes, the calcium chloride solution was removed and the microbeads transferred to a 48 well plate. The microbeads were washed twice with 0.5 ml ChondroLife Chondrogenesis media (Table 7). The plates were incubated at 37° C., 5% CO2. The media was changed every 2-3 days for 3 weeks.\nTo examine the growth of the chondrocytes, the microbeads were fixed, frozen in OCT compound, cut in 5 μM sections and mounted on glass slides. The microbeads were stained with Alcian Blue to detect the presence of sulfated proteoglycans."}, "[3]": {"system": "MSC which have undergone osteogenesis", "test": "Calcium / matrix deposition by MSC which have undergone osteogenesis, complex sugars in the media", "assay_type": "cell-based", "conditions": "sugar in the media", "from_the_text": "as §1"}, "mesenchymal stem cells": {"system": "mesenchymal stem cells", "conditions": "shown previously; cited from earlier work"}, "human fibroblast cells": {"system": "human fibroblast cells", "test": "Differentiation of human fibroblast cells into adipocytes (lipid accumulation, Oil Red O)", "assay_type": "cell-based", "conditions": "Troglitazone in combination with other elements", "experimental": "Fibroblast cells were grown in FibroLife S2 on standard tissue culture-treated plastic. Fibroblasts cells were plated at 20,000 cells/cm^2 and allowed the cells to grow to confluence (roughly 80,000 cells/cm^2) in approximately 2 days. Once the cells reached confluence the cell culture media was changed to AdipoLife Complete DifFactor 1 media. The cell culture media continued to be changed every 2 days. After 4 days the cell culture media was changed to AdipoLife Complete DifFactor 2 media for 17 days. Lipid accumulation was visible after 5 days culture in the AdipoLife Complete DifFactor 2 media. After 3 weeks of culture the cells were stained with Oil Red O stained to assay for accumulated lipids"}}, "data": [{"molecule": "hyaluronic acid", "values": [{"measurement": "effect on cartilage formation / matrix deposition", "setting": "[1]", "value": "vastly augments cartilage formation"}, {"measurement": "effect on matrix deposition", "setting": "fibroblasts", "value": "detrimental to matrix deposition"}, {"measurement": "effect on cartilage formation", "setting": "[2]", "value": "repress it"}, {"measurement": "effect on calcium deposition / matrix formation", "setting": "[3]", "value": "vastly increased amounts of calcium deposition"}]}, {"molecule": "N[C@H]1C(O)O[C@H](CO)[C@@H](O)[C@@H]1O.O=S(=O)(O)O", "note": "(some centres unmarked) [glucosamine sulfate]", "values": [{"measurement": "effect on cartilage formation / matrix deposition", "setting": "[1]", "value": "repress matrix deposition"}, {"measurement": "effect on cartilage formation", "setting": "[2]", "value": "require"}, {"measurement": "effect on calcium deposition / matrix formation", "setting": "[3]", "value": "vastly increased amounts of calcium deposition"}, {"measurement": "effect on matrix secretion", "setting": "mesenchymal stem cells", "value": "detrimental to matrix secretion"}]}, {"molecule": "O=C[C@H](O)[C@@H](O)[C@@H](O)[C@H](O)CO", "note": "[galactose]", "values": [{"measurement": "effect on cartilage formation / matrix deposition", "setting": "[1]", "value": "vastly augments cartilage formation"}, {"measurement": "effect on cartilage formation", "setting": "[2]", "value": "require"}, {"measurement": "effect on calcium deposition / matrix formation", "setting": "[3]", "value": "vastly increased amounts of calcium deposition"}]}, {"molecule": "Cc1c(C)c2c(c(C)c1O)CCC(C)(COc1ccc(CC3SC(=O)NC3=O)cc1)O2", "note": "(centres unmarked) [Troglitazone]", "values": [{"measurement": "surface of the human cell culture covered with lipid-accumulating cells", "setting": "human fibroblast cells", "value": "≥ 70", "unit": "%"}]}, {"molecule": "O=C[C@H](O)[C@@H](O)[C@H](O)[C@H](O)C(=O)O", "note": "[glucuronic acid]", "values": [{"measurement": "effect on cartilage formation / matrix deposition", "setting": "[1]", "value": "vastly augments cartilage formation"}, {"measurement": "effect on cartilage formation", "setting": "[2]", "value": "require"}]}]}
